Assay results: patent US11135234B2, “Effective aminoglycoside antibiotic for multidrug-resistant bacteria” (MICROBIAL CHEMISTRY RESEARCH FOUNDATION, priority 2015, dated 2021)

What was measured:
S. aureus RN4220 = test: MIC, agar plate dilution method, S. aureus RN4220; format: cell-based, Staphylococcus aureus; conditions: for minimal inhibitory concentration (MIC): S. aureus RN4220, Sensitive bacterium; for MIC: Staphylococcus aureus, RN4220, S. aureus RN4220, Sensitive bacterium, read-out: minimal inhibitory concentration (MIC)
How it was run: (§1)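 Japan Society of Chemotherapy agar dilution protocol used. MIC reported in μg/mL.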

S. aureus RN4220/pMS520 = test: MIC, agar plate dilution method, S. aureus RN4220/pMS520; format: cell-based, Staphylococcus aureus; conditions: for minimal inhibitory concentration (MIC): S. aureus RN4220/pMS520, MRSA; for MIC: Staphylococcus aureus, MRSA, read-out: minimal inhibitory concentration (MIC), S. aureus RN4220/pMS520, MRSA
How it was run: as §1

S. aureus MF490 = test: MIC, agar plate dilution method, S. aureus MF490; format: cell-based, Staphylococcus aureus; conditions: for minimal inhibitory concentration (MIC): S. aureus MF490, MRSA; for MIC: Staphylococcus aureus, MRSA, read-out: minimal inhibitory concentration (MIC)
How it was run: as §1

E. faecium ATCC19434 = test: MIC, agar plate dilution method, E. faecium ATCC19434; format: cell-based, Enterococcus faecium; conditions: for minimal inhibitory concentration (MIC): E. faecium ATCC19434; for MIC: Enterococcus faecium, ATCC19434, E. faecium ATCC19434, read-out: minimal inhibitory concentration (MIC)
How it was run: as §1

E. coli JM109/pMW218 = test: MIC, agar plate dilution method, E. coli JM109/pMW218; format: cell-based, Escherichia coli; conditions: for minimal inhibitory concentration (MIC): E. coli JM109/pMW218, Sensitive bacterium; for MIC: Escherichia coli, JM109/PMW218, E. coli JM109/pMW218, Sensitive bacterium, read-out: minimal inhibitory concentration (MIC)
How it was run: as §1

[1] = system: K. pneumoniae ATCC BAA-1705; test: MIC, agar plate dilution method, K. pneumoniae ATCC BAA-1705; format: cell-based, Klebsiella pneumoniae; conditions: for minimal inhibitory concentration (MIC): K. pneumoniae ATCC BAA-1705, KPC-producing strain; for MIC: Klebsiella pneumoniae, ATCCBAA1705, K. pneumoniae ATCC BAA-1705, KPC-producing strain, read-out: minimal inhibitory concentration (MIC)
How it was run: as §1

[2] = system: K. pneumoniae ATCC BAA-2146; test: MIC, agar plate dilution method, K. pneumoniae ATCC BAA-2146; format: cell-based, Klebsiella pneumoniae; conditions: for minimal inhibitory concentration (MIC): K. pneumoniae ATCC BAA-2146, NDM-producing strain; for MIC: Klebsiella pneumoniae, ATCCBAA2146, K. pneumoniae ATCC BAA-2146, NDM-producing strain, read-out: minimal inhibitory concentration (MIC)
How it was run: as §1

[3] = system: A. baumannii ATCC BAA-1710; test: MIC, agar plate dilution method, A. baumannii ATCC BAA-1710; format: cell-based, Acinetobacter baumannii; conditions: for minimal inhibitory concentration (MIC): A. baumannii ATCC BAA-1710, MDRA; for MIC: Acinetobacter baumannii, ATCCBAA1710, A. baumannii ATCC BAA-1710, MDRA, read-out: minimal inhibitory concentration (MIC)
How it was run: as §1

S. marcescens TH-0447 = test: MIC, agar plate dilution method, S. marcescens TH-0447; format: cell-based, Serratia marcescens; conditions: for minimal inhibitory concentration (MIC): S. marcescens TH-0447, AMK-resistant; for MIC: Serratia marcescens, TH0447, S. marcescens TH-0447, AMK-resistant, read-out: minimal inhibitory concentration (MIC)
How it was run: as §1

S. marcescens GN6944 = test: MIC, agar plate dilution method, S. marcescens GN6944; format: cell-based, Serratia marcescens; conditions: S. marcescens GN6944, GM-resistant; for MIC: Serratia marcescens, read-out: minimal inhibitory concentration (MIC)
How it was run: as §1

P. aeruginosa PAO1 = test: MIC, agar plate dilution method, P. aeruginosa PAO1; format: cell-based, Pseudomonas aeruginosa; conditions: for minimal inhibitory concentration (MIC): P. aeruginosa PAO1, Sensitive bacterium; for MIC: Pseudomonas aeruginosa, PAO1, P. aeruginosa PAO1, Sensitive bacterium, read-out: minimal inhibitory concentration (MIC)
How it was run: as §1

P. aeruginosa PAO1/GN315 = test: MIC, agar plate dilution method, P. aeruginosa PAO1/GN315; format: cell-based, Pseudomonas aeruginosa; conditions: for minimal inhibitory concentration (MIC): P. aeruginosa PAO1/GN315, AMK-resistant; for MIC: Pseudomonas aeruginosa, read-out: minimal inhibitory concentration (MIC), P. aeruginosa PAO1/GN315, AMK-resistant
How it was run: as §1

P. aeruginosa MSC17707 = test: MIC, agar plate dilution method, P. aeruginosa MSC17707; format: cell-based, Pseudomonas aeruginosa; conditions: for minimal inhibitory concentration (MIC): P. aeruginosa MSC17707, AMK-resistant; for MIC: Pseudomonas aeruginosa, MSC17707, P. aeruginosa MSC17707, AMK-resistant, read-out: minimal inhibitory concentration (MIC)
How it was run: as §1

P. aeruginosa MSC01035 = test: MIC, agar plate dilution method, P. aeruginosa MSC01035; format: cell-based, Pseudomonas aeruginosa; conditions: P. aeruginosa MSC01035, ABK-resistant; for MIC: Pseudomonas aeruginosa, read-out: minimal inhibitory concentration (MIC)
How it was run: as §1

CNC1C(OC2OC(CO)C(N)C(O)C2O)OC2CC(N)C(OC3C(N)CC(N)C(O)C3N)OC2C1O (stereo not shown) [Compound D2, 5-amino-5-deoxy-5-epiapramycin]
8 µg/mL: minimal inhibitory concentration (MIC) (S. aureus MF490) | minimal inhibitory concentration (MIC) [3] | minimal inhibitory concentration (MIC) (S. marcescens TH-0447) | minimal inhibitory concentration (MIC) (P. aeruginosa MSC17707)
4 µg/mL: minimal inhibitory concentration (MIC) (S. aureus RN4220) | minimal inhibitory concentration (MIC) (S. aureus RN4220/pMS520) | minimal inhibitory concentration (MIC) (S. marcescens GN6944) | minimal inhibitory concentration (MIC) (P. aeruginosa PAO1) | minimal inhibitory concentration (MIC) (P. aeruginosa PAO1/GN315) | minimal inhibitory concentration (MIC) (P. aeruginosa MSC01035)
2 µg/mL: minimal inhibitory concentration (MIC) (E. coli JM109/pMW218) | minimal inhibitory concentration (MIC) [1] | minimal inhibitory concentration (MIC) [2]
32 µg/mL: minimal inhibitory concentration (MIC) (E. faecium ATCC19434)

CNC1C(O[C@H]2OC(CO)[C@@H](NC3CNC3)[C@H](O)C2O)O[C@H]2CC(N)[C@@H](O[C@@H]3C(N)C[C@@H](N)C(O)[C@H]3O)OC2C1O (stereo partly shown) [Compound A4-h, 4″-N-(azetidin-3-yl)apramycin]
16 µg/mL: minimal inhibitory concentration (MIC) (S. aureus MF490) | minimal inhibitory concentration (MIC) [3] | minimal inhibitory concentration (MIC) (S. marcescens TH-0447) | minimal inhibitory concentration (MIC) (P. aeruginosa PAO1/GN315) | minimal inhibitory concentration (MIC) (P. aeruginosa MSC17707) | minimal inhibitory concentration (MIC) (P. aeruginosa MSC01035)
32 µg/mL: minimal inhibitory concentration (MIC) (E. faecium ATCC19434)
8 µg/mL: minimal inhibitory concentration (MIC) (S. marcescens GN6944) | minimal inhibitory concentration (MIC) (P. aeruginosa PAO1)
2 µg/mL: minimal inhibitory concentration (MIC) (E. coli JM109/pMW218) | minimal inhibitory concentration (MIC) [2]
4 µg/mL: minimal inhibitory concentration (MIC) (S. aureus RN4220) | minimal inhibitory concentration (MIC) (S. aureus RN4220/pMS520) | minimal inhibitory concentration (MIC) [1]

CN[C@@H]1[C@@H](O[C@H]2O[C@H](CO)[C@@H](NC(CN)CN)[C@H](O)[C@H]2O)O[C@H]2C[C@@H](N)[C@@H](O[C@H]3[C@@H](O)[C@@H](O)[C@H](N)C[C@@H]3N)O[C@@H]2[C@@H]1O [Compound S1-i, 4″-N-(1,3-diaminopropan-2-yl)-5-epiapramycin]
4 µg/mL: minimal inhibitory concentration (MIC) (S. aureus MF490) | minimal inhibitory concentration (MIC) (E. faecium ATCC19434) | minimal inhibitory concentration (MIC) [3] | minimal inhibitory concentration (MIC) (S. marcescens GN6944) | minimal inhibitory concentration (MIC) (P. aeruginosa PAO1/GN315) | minimal inhibitory concentration (MIC) (P. aeruginosa MSC01035)
1 µg/mL: minimal inhibitory concentration (MIC) (E. coli JM109/pMW218) | minimal inhibitory concentration (MIC) [1]
8 µg/mL: minimal inhibitory concentration (MIC) (S. marcescens TH-0447)
2 µg/mL: minimal inhibitory concentration (MIC) (S. aureus RN4220) | minimal inhibitory concentration (MIC) (S. aureus RN4220/pMS520) | minimal inhibitory concentration (MIC) [2] | minimal inhibitory concentration (MIC) (P. aeruginosa PAO1) | minimal inhibitory concentration (MIC) (P. aeruginosa MSC17707)

CNC1C(O[C@H]2OC(CO)[C@@H](NC(=N)N)[C@H](O)C2O)O[C@H]2CC(N)[C@@H](O[C@@H]3C(N)C[C@@H](N)C(O)[C@H]3O)OC2C1O (stereo partly shown) [Compound A4-j, 4″-deamino-4″-guanidinoapramycin]
8 µg/mL: MIC (S. aureus MF490) | MIC [3] | MIC (S. marcescens TH-0447) | MIC (P. aeruginosa PAO1/GN315) | MIC (P. aeruginosa MSC17707) | MIC (P. aeruginosa MSC01035)
4 µg/mL: MIC (S. marcescens GN6944) | MIC (P. aeruginosa PAO1)
16 µg/mL: MIC (E. faecium ATCC19434)
2 µg/mL: MIC (S. aureus RN4220) | MIC (S. aureus RN4220/pMS520) | MIC [1]
1 µg/mL: MIC (E. coli JM109/pMW218) | MIC [2]

CNC1C(O[C@H]2OC(CO)[C@@H](NCCN)[C@H](O)C2O)O[C@H]2CC(N)[C@@H](O[C@H]3CC(O)[C@H](N)CC3N)OC2C1O (stereo partly shown) [Compound S1-b, 4″-N-(2-aminoethyl)-5-deoxyapramycin]
2 µg/mL: MIC (S. aureus RN4220)
8 µg/mL: MIC (E. faecium ATCC19434) | MIC (S. marcescens TH-0447)
0.5 µg/mL: MIC (E. coli JM109/pMW218)
1 µg/mL: MIC (S. aureus RN4220/pMS520) | MIC [1] | MIC [2]
4 µg/mL: MIC (S. aureus MF490) | MIC [3] | MIC (S. marcescens GN6944) | MIC (P. aeruginosa PAO1) | MIC (P. aeruginosa PAO1/GN315) | MIC (P. aeruginosa MSC17707) | MIC (P. aeruginosa MSC01035)
